Assay results published in ChEMBL document CHEMBL3352810, “Synthesis and evaluation of novel alkannin and shikonin oxime derivatives as potent antitumor agents” (Bioorg Med Chem Lett, 2014).

Assays:
K562 = assay: Cytotoxicity against human K562 cells by MTT assay; type: functional, cell-based
DU-145 = assay: Cytotoxicity against human DU145 cells by MTT assay; type: functional, cell-based
[1] = Cytotoxicity against human skin fibroblast cells by MTT assay; type: cell-based
MCF7 [2] = assay: Cytotoxicity against human MCF7 cells by MTT assay; type: functional, cell-based
MCF7 [3] = assay: Induction of ROS level in human MCF7 cells by flow cytometry relative to control; type: functional
[4] = Alkylation of the compound assessed as Michael addition after 15 mins; type: physicochemical
[5] = Alkylation of the compound assessed as bioreductive alkylation after 15 mins; type: physicochemical

Compound | IC50 (K562) [nM] | IC50 (DU-145) [nM] | IC50 [1] [nM] | IC50 (MCF7 [2]) [nM] | Activity (MCF7 [3]) [%] | Activity [4] | Activity [5]
CC(C)=CC[C@H](O)C1=CC(=O)c2c(O)ccc(O)c2C1=O [ALKANNIN] | 1300 | 19900 | 1500 | 2400 |  |  | 
CC(C)=CC[C@@H](O)C1=CC(=O)c2c(O)ccc(O)c2C1=O [SHIKONIN] | 700 | 16000 | 1200 | 1800 |  |  | 
CC(C)=CC[C@@H](OC(=O)C=C(C)C)C1=CC(=O)c2c(O)ccc(O)c2C1=O [DIMETHYLACRYLSHIKONIN] |  |  |  |  | 414.8 | Not Active | Not Active
